According to patent publication US11814367B2, “Inhibitors of glycogen synthase 1 (GYS1) and methods of use thereof” (Maze Therapeutics, Inc., priority 2021, dated 2023):

Columns and labels:
[1] = target: hGYS1 enzyme (recombinant hGYS1/GN1 protein) (Homo sapiens (Human), UniProt P13807); assay: GYS1 coupled enzyme assay (PK/LDH); type: biochemical; settings: hGYS1/GN1 50 nM, UDP-Glucose 0.8 mM, G6P 1 mM; geometric mean of at least 2 runs
[2] = target: hGYS2 enzyme (recombinant hGYS2/GN1 protein) (Homo sapiens (Human), UniProt P54840); assay: GYS2 coupled enzyme assay (PK/LDH); type: biochemical; settings: geometric mean of at least 2 assay runs on separate days, read-out: Avg_IC50
hGYS2 enzyme (recombinant hGYS2/GN1 protein), sequence (P54840 whole entry): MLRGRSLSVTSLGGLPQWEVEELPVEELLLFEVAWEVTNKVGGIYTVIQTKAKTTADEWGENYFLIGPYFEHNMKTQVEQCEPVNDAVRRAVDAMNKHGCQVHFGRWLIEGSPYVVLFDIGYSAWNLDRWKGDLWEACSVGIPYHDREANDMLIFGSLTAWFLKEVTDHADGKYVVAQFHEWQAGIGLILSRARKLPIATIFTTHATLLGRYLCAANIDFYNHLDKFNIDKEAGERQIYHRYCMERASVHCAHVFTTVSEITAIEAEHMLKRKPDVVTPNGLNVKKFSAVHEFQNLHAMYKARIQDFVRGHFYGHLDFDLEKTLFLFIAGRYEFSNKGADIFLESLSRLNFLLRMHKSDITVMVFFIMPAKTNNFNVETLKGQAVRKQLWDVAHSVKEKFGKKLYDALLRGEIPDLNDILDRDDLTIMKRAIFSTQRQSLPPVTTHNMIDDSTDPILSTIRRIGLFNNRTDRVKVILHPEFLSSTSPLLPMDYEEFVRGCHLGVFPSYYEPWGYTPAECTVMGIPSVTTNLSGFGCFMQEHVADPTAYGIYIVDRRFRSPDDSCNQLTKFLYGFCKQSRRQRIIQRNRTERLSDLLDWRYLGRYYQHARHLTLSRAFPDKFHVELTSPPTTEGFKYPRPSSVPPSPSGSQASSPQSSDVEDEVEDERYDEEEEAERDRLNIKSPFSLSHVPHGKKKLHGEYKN
hGYS2 enzyme (recombinant hGYS2/GN1 protein), sequence (P46976 whole entry partner): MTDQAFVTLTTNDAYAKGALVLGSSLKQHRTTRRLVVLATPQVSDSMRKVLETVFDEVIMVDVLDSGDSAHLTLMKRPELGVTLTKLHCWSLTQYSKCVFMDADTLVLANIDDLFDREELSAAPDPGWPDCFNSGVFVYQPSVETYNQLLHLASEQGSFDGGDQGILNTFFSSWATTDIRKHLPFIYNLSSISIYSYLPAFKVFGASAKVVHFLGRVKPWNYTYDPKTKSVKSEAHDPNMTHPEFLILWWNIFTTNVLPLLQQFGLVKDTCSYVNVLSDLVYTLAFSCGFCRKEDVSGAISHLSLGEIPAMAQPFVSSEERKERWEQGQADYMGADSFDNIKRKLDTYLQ
From the text: The GYS2 coupled enzyme assay is a kinetic biochemical assay that indirectly quantifies the rate of glycogen synthesis by coupling the conversion of GYS2 substrate UDP-glucose into UDP with downstream enzymatic reactions. UDP is released from UDP-glucose as glucose monomers are linked into the growing glycogen strand by GYS2. The coupled assay then proceeds with pyruvate kinase utilizing UDP and phospho(enol)pyruvate (PEP) to form pyruvate. Lactate dehydrogenase then converts pyruvate and NADH into lactate and NAD+. Oxidation of NADH to NAD+ can be measured continuously with a plate reader by quantifying the decrease in NADH absorbance at 340 nm over time.
Compounds that inhibit the hGYS2 enzyme and, subsequently, the downstream conversion of NADH to NAD+, were tested using assay ready plates (black, clear bottom 384 well plates) in a final DMSO reaction volume of 2.5% DMSO. The Assay Buffer contained 50 mM Tris pH 7.5, 2 mM MgCl2, and 100 mM KCl. Fresh stocks of BSA at a final concentration of 0.02% and TCEP 1 mM were added before splitting buffer into hGYS2 buffer and substrate buffer. To the hGYS2 buffer, rabbit liver glycogen was added at a final concentration of 0.2% glycogen. Glucose-6-Phosphate was added at 2 mM, recombinant hGYS2/GN1 protein was added at 200 nM to the substrate buffer, phosphoenolpyruvate (PEP) was added at 2 mM, UDP-Glucose was added at 2 mM, NADH was added at 0.6 mM, and Pyruvate Kinase/Lactate Dehydrogenase was added at 20 units/mL. The reaction was initiated by mixing hGYS2 buffer and substrate buffer at a 1:1 ratio. Both buffers were plated using a liquid dispensing device with hGYS2 buffer plated first followed by the substrate buffer. Plates were spun briefly to eliminate air bubbles and are immediately read in continuous mode at an absorbance of 340 nm, for 10 time points in one-minute increments, for a total of 10 minutes. The slope from these 10 time points was normalized to the positive and negative control wells. The duplicate % inhibition values are then averaged and fit to a Hill equation for dose response according to the Levenberg-Marquardt algorithm with the Hill equation maximum set to 100 and the minimum set to 0.
The results are shown in Table 4 below, which reports the IC50 of each compound. Unless otherwise specified, IC50 values are reported as the geometric mean of at least 2 assay runs on separate days. As shown in the table below, the compounds of the present invention are not potent inhibitors of human GYS2. Unless otherwise specified, IC50 values are reported as the geometric mean of at least two assay runs on separate days. Each run represents the average of a technical replicate, where each compound was assayed twice in the same plate. A superscript “#” symbol in Table 4 indicates results from a single assay run.

hGYS1 enzyme (recombinant hGYS1/GN1 protein), sequence (P13807 whole entry): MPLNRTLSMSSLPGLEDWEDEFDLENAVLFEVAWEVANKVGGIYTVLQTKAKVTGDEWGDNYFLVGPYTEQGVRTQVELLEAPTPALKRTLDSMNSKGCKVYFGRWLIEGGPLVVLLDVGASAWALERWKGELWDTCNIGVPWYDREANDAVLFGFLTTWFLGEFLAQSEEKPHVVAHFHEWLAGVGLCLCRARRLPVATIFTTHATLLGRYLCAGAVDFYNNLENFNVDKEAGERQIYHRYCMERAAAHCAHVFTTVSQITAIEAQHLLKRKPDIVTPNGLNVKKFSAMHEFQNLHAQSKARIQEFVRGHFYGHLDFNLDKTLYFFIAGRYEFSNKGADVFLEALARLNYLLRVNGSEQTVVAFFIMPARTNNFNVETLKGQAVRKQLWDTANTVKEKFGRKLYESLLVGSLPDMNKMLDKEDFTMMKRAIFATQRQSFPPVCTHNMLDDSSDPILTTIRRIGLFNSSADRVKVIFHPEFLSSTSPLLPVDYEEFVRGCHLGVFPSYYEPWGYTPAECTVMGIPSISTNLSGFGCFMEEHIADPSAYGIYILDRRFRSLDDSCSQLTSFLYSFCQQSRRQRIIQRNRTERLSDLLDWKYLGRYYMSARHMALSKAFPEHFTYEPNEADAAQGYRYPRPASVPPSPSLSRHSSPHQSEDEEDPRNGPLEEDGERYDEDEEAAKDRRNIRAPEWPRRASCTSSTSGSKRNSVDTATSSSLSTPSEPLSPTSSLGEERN
hGYS1 enzyme (recombinant hGYS1/GN1 protein), sequence (P46976 whole entry partner): as the sequence (P46976 whole entry partner) above

## CC(C)c1ccc([C@@H](NC(=O)[C@@H]2C[C@@H](F)CN2C(=O)CN2C(=O)CNC2=O)c2ccccc2)cc1 [Compound 117, (2S,4R)-1-[2-(2,5-dioxoimidazolidin-1-yl)acetyl]-4-fluoro-N-[(S)-phenyl[4-(propan-2-yl)phenyl]methyl]pyrrolidine-2-carboxamide]
[1]
  IC50: 49 nM
[2]
  IC50: > 100000 nM

## CC(=O)N1CCC[C@@H]1CC(=O)N1C[C@H](F)C[C@H]1C(=O)N[C@@H](c1ccccc1)c1ccc(C(C)C)cc1 [Compound 155, (2S,4R)-1-{2-[(2R)-1-acetylpyrrolidin-2-yl]acetyl}-4-fluoro-N-[(S)-phenyl[4-(propan-2-yl)phenyl]methyl]pyrrolidine-2-carboxamide]
[1]
  IC50: 206 nM
[2]
  IC50: > 100000 nM

## CC(C)c1ccc([C@@H](NC(=O)[C@@H]2C[C@@H](F)CN2C(=O)C2CCC(=O)NC2)c2ccccc2)cc1 (stereo partly drawn) [Compound 58, (2S,4R)-4-fluoro-1-(6-oxopiperidine-3-carbonyl)-N-[(S)-phenyl[4-(propan-2-yl)phenyl]methyl]pyrrolidine-2-carboxamide]
[1]
  IC50: 145 nM
[2]
  IC50: > 100000 nM

## CC(C)c1ccc(C(NC(=O)[C@@H]2C[C@@H](F)CN2C(=O)Cc2cnn[nH]2)c2ccc(N)nc2)cc1F (single isomer, unassigned) [Compound 620, (2S,4R)-N-[(R) or (S)-(6-aminopyridin-3-yl)[3-fluoro-4-(propan-2-yl)phenyl]methyl]-4-fluoro-1-[2-(1H-1,2,3-triazol-5-yl)acetyl]pyrrolidine-2-carboxamide]
[1]
  IC50: 142 nM
[2]
  IC50: > 100000 nM

## COc1ccc(CC(=O)N2C[C@H](F)C[C@H]2C(=O)N[C@@H](c2ccccc2)c2ccc(C(C)C)cc2)c(C#N)c1 [Compound 133, (2S,4R)-1-[2-(2-cyano-4-methoxyphenyl)acetyl]-4-fluoro-N-[(S)-phenyl[4-(propan-2-yl)phenyl]methyl]pyrrolidine-2-carboxamide]
[1]
  IC50: 10 nM
[2]
  IC50: > 100000 nM

## CC(C)c1ccc([C@@H](NC(=O)[C@@H]2C[C@@H](F)CN2C(=O)Cc2nn[nH]n2)c2ccccc2)cc1 (stereo in doubt) [Compound 223, (2RS,4R)-4-fluoro-N-[(S)-phenyl[4-(propan-2-yl)phenyl]methyl]-1-[2-(2H-1,2,3,4-tetrazol-5-yl)acetyl]pyrrolidine-2-carboxamide]
[1]
  IC50: 62 nM
[2]
  IC50: > 100000 nM

## Cc1ncc(CC(=O)N2C[C@H](F)C[C@H]2C(=O)N[C@@H](c2ccccc2)c2ccc(C(C)C)cc2)s1 [Compound 41, (2S,4R)-4-fluoro-1-[2-(2-methyl-1,3-thiazol-5-yl)acetyl]-N-[(S)-phenyl[4-(propan-2-yl)phenyl]methyl]pyrrolidine-2-carboxamide]
[1]
  IC50: 31 nM
[2]
  IC50: > 100000 nM

## COc1ccc(CC(=O)N2C[C@H](F)C[C@H]2C(=O)N[C@@H](c2ccccc2)c2ccc(C(C)C)cc2)cc1F [Compound 89, (2S,4R)-4-fluoro-1-[2-(3-fluoro-4-methoxyphenyl)acetyl]-N-[(S)-phenyl[4-(propan-2-yl)phenyl]methyl]pyrrolidine-2-carboxamide]
[1]
  IC50: 60 nM
[2]
  IC50: > 100000 nM

## CC(C)c1ccc([C@@H](NC(=O)[C@@H]2CCCN2C(=O)C2CC2)c2ccccc2)cc1 [Compound 203, (2S)-1-cyclopropanecarbonyl-N-[(S)-phenyl[4-(propan-2-yl)phenyl]methyl]pyrrolidine-2-carboxamide]
[1]
  IC50: 862 nM
[2]
  IC50: > 100000 nM

## CC(C)c1ccc([C@@H](NC(=O)[C@@H]2C[C@@H](F)CN2C(=O)Cn2ccncc2=O)c2ccccc2)cc1 [Compound 32, (2S,4R)-4-fluoro-1-[2-(2-oxo-1,2-dihydropyrazin-1-yl)acetyl]-N-[(S)-phenyl[4-(propan-2-yl)phenyl]methyl]pyrrolidine-2-carboxamide]
[1]
  IC50: 23 nM
[2]
  IC50: > 100000 nM

## CC(=O)N1[C@@H](C)CC[C@H]1C(=O)N[C@@H](c1ccccc1)c1ccc(C(C)C)cc1 [Compound 214, (2S,5S)-1-acetyl-5-methyl-N-[(S)-phenyl[4-(propan-2-yl)phenyl]methyl]pyrrolidine-2-carboxamide]
[1]
  IC50: 853 nM
[2]
  IC50: > 100000 nM

## Cc1cc(CC(=O)N2C[C@H](F)C[C@H]2C(=O)N[C@@H](c2ccccc2)c2ccc(C(C)C)cc2)on1 [Compound 40, (2S,4R)-4-fluoro-1-[2-(3-methyl-1,2-oxazol-5-yl)acetyl]-N-[(S)-phenyl[4-(propan-2-yl)phenyl]methyl]pyrrolidine-2-carboxamide]
[1]
  IC50: 26 nM
[2]
  IC50: > 100000 nM

## CC(=O)NCCCC(=O)N1C[C@H](F)C[C@H]1C(=O)N[C@@H](c1ccccc1)c1ccc(C(C)C)cc1 [Compound 191, (2S,4R)-1-(4-acetamidobutanoyl)-4-fluoro-N-[(S)-phenyl[4-(propan-2-yl)phenyl]methyl]pyrrolidine-2-carboxamide]
[1]
  IC50: 131 nM
[2]
  IC50: > 100000 nM

## CC(C)c1ccc([C@@H](NC(=O)[C@@H]2C[C@@H](F)CN2C(=O)C(C)(C)c2nnco2)c2ccccc2)cc1F [Compound 334]
[1]
  IC50: 145 nM
[2]
  IC50: > 100000 nM

## CC(C)c1ccc([C@@H](NC(=O)[C@@H]2C[C@@H](F)CN2C(=O)Cc2cnco2)c2ccccc2)cc1 [Compound 195, (2S,4R)-4-fluoro-1-[2-(1,3-oxazol-5-yl)acetyl]-N-[(S)-phenyl[4-(propan-2-yl)phenyl]methyl]pyrrolidine-2-carboxamide]
[1]
  IC50: 44 nM
[2]
  IC50: > 100000 nM

## CC(C)c1ccc([C@@H](NC(=O)[C@@H]2C[C@@H](F)CN2C(=O)Cc2ccnn2C)c2ccccc2)cc1 (stereo in doubt) [Compound 220, (2S,4RS)-4-fluoro-1-[2-(1-methyl-1H-pyrazol-5-yl)acetyl]-N-[(S)-phenyl[4-(propan-2-yl)phenyl]methyl]pyrrolidine-2-carboxamide]
[1]
  IC50: 38 nM
[2]
  IC50: > 100000 nM

## O=C(N[C@@H](c1ccccc1)c1ccc(C2CC2)c(F)c1)[C@@H]1C[C@@H](F)CN1C(=O)Cc1cn[nH]c1 [Compound 437, (2S,4R)-N-[(S)-(4-cyclopropyl-3-fluorophenyl)(phenyl)methyl]-4-fluoro-1-[2-(1H-pyrazol-4-yl)acetyl]pyrrolidine-2-carboxamide]
[1]
  IC50: 157 nM
[2]
  IC50: > 100000 nM

## CC(C)c1ccc([C@@H](NC(=O)[C@@H]2C[C@@H](F)CN2C(=O)CCc2ccccn2)c2ccccc2)cc1 [Compound 65, (2S,4R)-4-fluoro-N-[(S)-phenyl[4-(propan-2-yl)phenyl]methyl]-1-[3-(pyridin-2-yl)propanoyl]pyrrolidine-2-carboxamide]
[1]
  IC50: 76 nM
[2]
  IC50: > 100000 nM

## CC(=O)N1C[C@H](F)C[C@H]1C(=O)NC(c1ccccc1)c1ccc(C2CCC2)cn1 (single isomer, unassigned) [Compound 603, (2S,4R)-1-acetyl-N-[(S) or (R)-(5-cyclobutylpyridin-2-yl) (phenyl)methyl]-4-fluoropyrrolidine-2-carboxamide]
[1]
  IC50: 602 nM
[2]
  IC50: > 100000 nM

## CC(=O)N[C@@H](CC(N)=O)C(=O)N1C[C@H](F)C[C@H]1C(=O)N[C@@H](c1ccccc1)c1ccc(C(C)C)cc1 [Compound 208, (2S,4R)-1-[(2S)-3-carbamoyl-2-acetamidopropanoyl]-4-fluoro-N-[(S)-phenyl[4-(propan-2-yl)phenyl]methyl]pyrrolidine-2-carboxamide]
[1]
  IC50: 113 nM
[2]
  IC50: > 100000 nM

## CC(C)c1ccc([C@@H](NC(=O)[C@@H]2C[C@@H](F)CN2C(=O)Cc2cnn[nH]2)c2cccnc2N)cc1F [Compound 613, (2S,4R)-1-(2-(1H-1,2,3-triazol-5-yl)acetyl)-N—((R)-(2-aminopyridin-3-yl)(3-fluoro-4-isopropylphenyl)methyl)-4-fluoropyrrolidine-2-carboxamide]
[1]
  IC50: 130 nM
[2]
  IC50: > 100000 nM

## O=C(N[C@@H](c1ccccc1)c1ccc(C2CC2)c(F)c1)[C@@H]1C[C@@H](F)CN1C(=O)Cc1nnn[nH]1 [Compound 430, (2S,4R)-N-[(S)-(4-cyclopropyl-3-fluorophenyl)(phenyl)methyl]-4-fluoro-1-[2-(1H-1,2,3,4-tetrazol-5-yl)acetyl]pyrrolidine-2-carboxamide]
[1]
  IC50: 191 nM
[2]
  IC50: > 100000 nM
